Oligonucleotides are written 5' to 3', each unit as a sugar letter and its base; * is a phosphorothioate linkage, no mark a phosphodiester; rarer units and linkages stand in square brackets, end groups in braces. Plain capitals give the bases only. m = 2'-O-methyl; {P} = phosphate; f = 2'-fluoro

The source of these data is patent US20230095695A1, “RNAS FOR COMPLEMENT INHIBITION” (Apellis Pharmaceuticals, Inc., priority 2020, published 2023).

The subject of the series is C3 mRNA. Kind of series: Dose response experiments (DRC) of modification variants, C3 mRNA knockdown in HepG2 cells. The format is cell-based, human. The conditions noted are these: for IC50 / IC80: 10 concentrations from 100 nM in 6-fold dilution steps; for Max KD: DRC experiments. The procedure:
HepG2 cells were obtained from ATCC (ATCC in partnership with LGC Standards, Wesel, Germany, cat. #ATCC-HB-8065) and cultured in MEM Eagle (#M2279, Sigma-Aldrich, Germany), supplemented to contain 10% fetal calf serum (#1248D, Biochrom GmbH, Berlin, Germany), 1× non-essential amino acids (#K0293; Biochrom, Berlin, Germany), 4 mM L-Glutamine (#K0283, Biochrom, Berlin, Germany) and 100 U/ml Penicillin/100 μg/ml Streptomycin (#A2213, Biochrom GmbH, Berlin, Germany) at 37° C. in an atmosphere with 5% CO2 in a humidified incubator.
siRNAs were designed and synthesized based on the nucleotide sequence of the top siRNAs in terms of activity from Examples 1 and 2 (siRNA ID: 1, 4, 9, 10, 16, and 22) with different modification patterns. 5 “variants” were designed and synthesized for each of the top siRNA nucleotide sequences, and each duplex is identified as “variant1”, “variant2”, “variant3”, variant4”, “variant5” depending on which modifications were made. siRNAs from Examples 1 and 2 (siRNA ID: 1, 4, 9, 10, 16, and 22) are identified as “variant0”.
Transfection of siRNA was carried out with Lipofectamine RNAiMax (Invitrogen/Life Technologies, Karlsruhe, Germany) according to manufacturer's instructions for reverse transfection.
Each siRNA was tested using dose response experiments (DRC) in HepG2 cells. Two additional siRNAs (siRNA ID 26 and 27), known to knockdown C3 expression, were used as positive controls.
Dose-response experiments were done with siRNA in 10 concentrations transfected in quadruplicates, starting at 100 nM in 6-fold dilutions steps down to ˜10 fM. Mock transfected cells served as negative controls.
For each well, the target mRNA level was normalized to the respective GAPDH mRNA level. The activity of a given siRNA was expressed as percent mRNA concentration of the respective target (normalized to GAPDH mRNA) in treated cells, relative to the target mRNA concentration (normalized to GAPDH mRNA) averaged across mock transfected wells (DRCs).

As a reminder, the IC50 is the concentration that gives 50% inhibition. A low value points to higher potency. Broadly, the IC80 is the concentration needed for an effect of 80%. For the substance “26 (sense CAACUCACCUGUAAUAAAUUU; antisense AUUUAUUACAGGUGAGUUGUU; siRNA; sense: all phosphodiester, sugars by position not given here; antisense: all phosphodiester, 5' {P}, sugars by position not given here) [compound 26]”, the IC50 came out at 0.006 nM, the IC80 came out at 0.062 nM and the “Max KD” value was determined as 86%.

Regarding “27 (sense GAGCCGUUCUCUACAAUUAUU; antisense UAAUUGUAGAGAACGGCUCUU; siRNA; sense: all phosphodiester, sugars by position not given here; antisense: all phosphodiester, 5' {P}, sugars by position not given here) [compound 27]”, the IC50 turned out to be 0.004 nM, it took 0.027 nM to reach the 80% level (IC80) and the “Max KD” value amounted to 89%.

With “28 (sense mU*mC*fAmAmCmUfCfAfCmCmUfGmUmAmAmUfAmAmA; antisense mU*fU*mUmAmUmUmAmCmAmGmGmUmGfAmGmUmUmGmA*mU*mC; siRNA) [compound 28]”, it took 0.001 nM to reach half-maximal inhibition (IC50), it took 0.711 nM to reach the 80% level (IC80) and the “Max KD” value was 95%.

Consider “29 (sense fU*mC*fAmAfCmUfCmAfCmCfUmGfUmAfAmUfAmAfA; antisense mU*fU*mUfAmUfUmAfCmAfGmGfUmGfAmGfUmUfGmA*mU*mC; siRNA) [compound 29]”, for which the midpoint of inhibition, the IC50, lay at 0.979 nM and the “Max KD” value worked out at 68%.

On to “30 (sense fU*mC*fAmAfCmUfCmAfCmCfUmGfUmAfAmUfAmAfA; antisense mU*fU*mUmAmUmUmAmCmAmGmGmUmGfAmGmUmUmGmA*mU*mC; siRNA) [compound 30]”, for which the “Max KD” value came out at 36%.

Regarding “31 (sense fU*mC*fAmAfCmUfCmAfCmCfUmGfUmAfAmUfAmAfA; antisense mU*fU*mUmAmUfUmAmCmAmGmGmUmGfAmGfUmUmGmA*mU*mC; siRNA) [compound 31]”, inhibition was half-maximal at 0.343 nM (IC50), the IC80 was found to be 7.64 nM and the “Max KD” value is recorded as 81%.

On to “32 (sense mU*mC*fAmAmCmUfCfAfCmCmUfGmUmAmAmUfAmAmA; antisense mU*fU*mUmAmUfUmAmCmAmGmGmUmGfAmGfUmUmGmA*mU*mC; siRNA) [compound 32]”, for which the “C3 knockdown, comparison among modification variants of the same nucleotide sequence” value is “most effective in C3 knockdown”; the IC50 turned out to be 0.018 nM; it took 0.108 nM to reach the 80% level (IC80); the “Max KD” value is listed as 93%.

On to “33 (sense mU*mC*fCmAmAmGfCfCfUmUmGfGmCmUmCmAfAmUmA; antisense mU*fA*mUmUmGmAmGmCmCmAmAmGmGfCmUmUmGmGmA*mA*mC; siRNA) [compound 33]”, for which half-maximal inhibition (IC50) was put at 0.075 nM, the IC80 amounted to 0.601 nM and the “Max KD” value amounted to 91%.

“34 (sense fU*mC*fCmAfAmGfCmCfUmUfGmGfCmUfCmAfAmUfA; antisense mU*fA*mUfUmGfAmGfCmCfAmAfGmGfCmUfUmGfGmA*mA*mC; siRNA) [compound 34]”: the half-maximal inhibitory concentration (IC50) was determined as 0.324 nM, the IC80 amounted to 1.64 nM and the “Max KD” value came to 86%.

As to “35 (sense fU*mC*fCmAfAmGfCmCfUmUfGmGfCmUfCmAfAmUfA; antisense mU*fA*mUmUmGmAmGmCmCmAmAmGmGfCmUmUmGmGmA*mA*mC; siRNA) [compound 35]”, the IC50 is 0.622 nM and the “Max KD” value was 55%.

Regarding “36 (sense fU*mC*fCmAfAmGfCmCfUmUfGmGfCmUfCmAfAmUfA; antisense mU*fA*mUmUmGfAmGmCmCmAmAmGmGfCmUfUmGmGmA*mA*mC; siRNA) [compound 36]”, the midpoint of inhibition, the IC50, lay at 0.486 nM and the “Max KD” value is reported as 68%.

In the case of “37 (sense mU*mC*fCmAmAmGfCfCfUmUmGfGmCmUmCmAfAmUmA; antisense mU*fA*mUmUmGfAmGmCmCmAmAmGmGfCmUfUmGmGmA*mA*mC; siRNA) [compound 37]”, the IC50 was found to be 0.168 nM, the 80% effect level (IC80) was put at 1.38 nM and the “Max KD” value was determined as 86%.

Turning to “38 (sense mA*mU*fCmGmGmAfUfCfUmUmCfAmCmCmGmUfCmAmA; antisense mU*fU*mGmAmCmGmGmUmGmAmAmGmAfUmCmCmGmAmU*mA*mG; siRNA) [compound 38]”, the midpoint of inhibition, the IC50, lay at 0.151 nM; the 80% effect level (IC80) was put at 0.728 nM; the “Max KD” value came out at 91%.

On to “39 (sense fA*mU*fCmGfGmAfUmCfUmUfCmAfCmCfGmUfCmAfA; antisense mU*fU*mGfAmCfGmGfUmGfAmAfGmAfUmCfCmGfAmU*mA*mG; siRNA) [compound 39]”, for which the IC50 was determined as 0.326 nM, it took 1.66 nM to reach the 80% level (IC80) and the “Max KD” value came to 86%.

In the case of “40 (sense fA*mU*fCmGfGmAfUmCfUmUfCmAfCmCfGmUfCmAfA; antisense mU*fU*mGmAmCmGmGmUmGmAmAmGmAfUmCmCmGmAmU*mA*mG; siRNA) [compound 40]”, 0.468 nM corresponded to half-maximal inhibition (IC50), it took 2.44 nM to reach the 80% level (IC80) and the “Max KD” value is given as 87%.

“41 (sense fA*mU*fCmGfGmAfUmCfUmUfCmAfCmCfGmUfCmAfA; antisense mU*fU*mGmAmCfGmGmUmGmAmAmGmAfUmCfCmGmAmU*mA*mG; siRNA) [compound 41]”: the IC50 came out at 1.4 nM, the IC80 was 11.1 nM and the “Max KD” value came out at 84%.

Take “42 (sense mA*mU*fCmGmGmAfUfCfUmUmCfAmCmCmGmUfCmAmA; antisense mU*fU*mGmAmCfGmGmUmGmAmAmGmAfUmCfCmGmAmU*mA*mG; siRNA) [compound 42]”: the IC50 is 0.5 nM, the IC80 was found to be 2.91 nM and the “Max KD” value is reported as 84%.

Take “43 (sense mU*mC*fAmAmCmUfUfCfCmUmCfCmUmGmCmGfAmAmA; antisense mU*fU*mUmCmGmCmAmGmGmAmGmGmAfAmGmUmUmGmA*mC*mG; siRNA) [compound 43]”: the IC50 amounted to 0.096 nM, it took 3.22 nM to reach the 80% level (IC80) and the “Max KD” value is on record as 82%.

With “44 (sense fU*mC*fAmAfCmUfUmCfCmUfCmCfUmGfCmGfAmAfA; antisense mU*fU*mUfCmGfCmAfGmGfAmGfGmAfAmGfUmUfGmA*mC*mG; siRNA) [compound 44]”, the IC50 stood at 0.386 nM and the “Max KD” value stood at 76%.

“45 (sense fU*mC*fAmAfCmUfUmCfCmUfCmCfUmGfCmGfAmAfA; antisense mU*fU*mUmCmGmCmAmGmGmAmGmGmAfAmGmUmUmGmA*mC*mG; siRNA) [compound 45]”: the IC50 amounted to 0.905 nM and the “Max KD” value worked out at 50%.

Consider “46 (sense fU*mC*fAmAfCmUfUmCfCmUfCmCfUmGfCmGfAmAfA; antisense mU*fU*mUmCmGfCmAmGmGmAmGmGmAfAmGfUmUmGmA*mC*mG; siRNA) [compound 46]”, for which it took 0.54 nM to reach half-maximal inhibition (IC50) and the “Max KD” value was 63%.

Take “47 (sense UCAACUUCCUCCUGCGAAA; antisense UUUCGCAGGAGGAAGUUGACG; 2'-F, 2'-OMe, phosphorothioate modifications, chemistry not fully specified) [compound 47]”: the IC50 worked out at 0.055 nM, the IC80 stood at 0.708 nM and the “Max KD” value was found to be 83%.

For the substance “48 (sense mC*mA*fAmUmGmAfCfUfUmUmGfAmCmGmAmGfUmAmA; antisense mU*fU*mAmCmUmCmGmUmCmAmAmAmGfUmCmAmUmUmG*mG*mA; siRNA) [compound 48]”, inhibition was half-maximal at 0.119 nM (IC50), the 80% effect level (IC80) was put at 8.35 nM and the “Max KD” value is 82%.

“49 (sense fC*mA*fAmUfGmAfCmUfUmUfGmAfCmGfAmGfUmAfA; antisense mU*fU*mAfCmUfCmGfUmCfAmAfAmGfUmCfAmUfUmG*mG*mA; siRNA) [compound 49]”: the “Max KD” value worked out at 28%.

Take “50 (sense fC*mA*fAmUfGmAfCmUfUmUfGmAfCmGfAmGfUmAfA; antisense mU*fU*mAmCmUmCmGmUmCmAmAmAmGfUmCmAmUmUmG*mG*mA; siRNA) [compound 50]”: the “Max KD” value came to 16%.

On to “51 (sense fC*mA*fAmUfGmAfCmUfUmUfGmAfCmGfAmGfUmAfA; antisense mU*fU*mAmCmUfCmGmUmCmAmAmAmGfUmCfAmUmUmG*mG*mA; siRNA) [compound 51]”, for which the “Max KD” value stood at 32%.

“52 (sense mC*mA*fAmUmGmAfCfUfUmUmGfAmCmGmAmGfUmAmA; antisense mU*fU*mAmCmUfCmGmUmCmAmAmAmGfUmCfAmUmUmG*mG*mA; siRNA) [compound 52]”: half-maximal inhibition (IC50) required 0.058 nM, the IC80 stood at 1.89 nM and the “Max KD” value is given as 85%.

Consider “53 (sense mC*mC*fAmAmCmUfAfCfAmUmGfAmAmCmCmUfAmCmA; antisense mU*fG*mUmAmGmGmUmUmCmAmUmGmUfAmGmUmUmGmG*mC*mU; siRNA) [compound 53]”, for which the IC50 came to 0.056 nM, it took 0.51 nM to reach the 80% level (IC80) and the “Max KD” value amounted to 91%.
